Experimental data: US5438117A, “Hexapeptides deriving from aglucoteicoplanin and a process for preparing them” (Gruppo Lepetit S.p.A., priority 1990, dated 1995)

Columns and labels:
[1] = N. Pant et al and P. M. Booth et al; cited from earlier work
[2] = tested on: two strains of S. aureus and S. epidermidis low sensitive to teicoplanin; experiment: Activity relative to teicoplanin (from MIC); type: cell-based
Procedure: (§1) The antimicrobial activity, expressed as minimal inhibitory concentration (MIC), of the hexapeptide of formula (I), R=hydrogen, against selected strains of Gram-positive bacteria was determined in comparison with teicoplanin. The microdilution method in DIFCO TODDO-HEWITT broth (Streptococci) or OXOID ISO-SENSITEST broth (Staphylococci) was used.

Staph. aureus Tour = experiment: In vitro MIC, microdilution method in broth; type: cell-based; conditions: OXOID ISO-SENSITEST broth, inoculum 10^5 cfu/ml, 18-24 hours at 37° C.
Procedure: as §1
(§2) *Inoculum: 10^5 cfu/ml.

Strep. pyogenes C 203 = experiment: In vitro MIC, microdilution method in broth; type: cell-based; conditions: DIFCO TODDO-HEWITT broth, inoculum 10^5 cfu/ml, 18-24 hours at 37° C.
Procedure: as §1, §2

[3] = tested on: Entero. faecalis ATCC 7080; experiment: In vitro MIC, microdilution method in broth; type: cell-based; conditions: inoculum 10^5 cfu/ml, 18-24 hours at 37° C.
Procedure: as §1, §2

[4] = tested on: Staph. epidermidis ATCC 12228; experiment: In vitro MIC, microdilution method in broth; type: cell-based; conditions: inoculum 10^5 cfu/ml, 18-24 hours at 37° C.
Procedure: as §1, §2

Strep. pneumoniae UC 41 = experiment: In vitro MIC, microdilution method in broth; type: cell-based; conditions: DIFCO TODDO-HEWITT broth, inoculum 10^5 cfu/ml, 18-24 hours at 37° C.
Procedure: as §1, §2

Staph. aureus (TLS) = experiment: In vitro MIC, microdilution method in broth; type: cell-based; conditions: Staph. aureus (TLS = Low Sensitive to Teicoplanin); inoculum 10^5 cfu/ml; 18-24 hours at 37° C.
Procedure: as §1
(§3) TLS = Low Sensitive to Teicoplanin
as §2

[5] = tested on: Staph. haemolyticus clin. isolate (TLS); experiment: In vitro MIC, microdilution method in broth; type: cell-based; conditions: inoculum 10^5 cfu/ml, 18-24 hours at 37° C.
Procedure: as §1, §3, §2

Staph. epidermidis (TLS) = experiment: In vitro MIC, microdilution method in broth; type: cell-based; conditions: Staph. epidermidis (TLS = Low Sensitive to Teicoplanin); inoculum 10^5 cfu/ml; 18-24 hours at 37° C.
Procedure: as §1, §3, §2

| Substance | Biological activity [1] | Activity compared with teicoplanin [2] | MIC (Staph. aureus Tour) | MIC (Strep. pyogenes C 203) | MIC [3] | MIC [4] | MIC (Strep. pneumoniae UC 41) | MIC (Staph. aureus (TLS)) | MIC [5] | MIC (Staph. epidermidis (TLS)) |
| --- | --- | --- | --- | --- | --- | --- | --- | --- | --- | --- |
| Aglucovancomycin Hexapeptide | inactivity | – | – | – | – | – | – | – | – | – |
| aglucoteicoplanin hexapeptide [Example 1] | – | four to sixteen times more active | 2 µg/mL | 8 µg/mL | 8 µg/mL | 0.5 µg/mL | 4 µg/mL | 2 µg/mL | 16 µg/mL | 1 µg/mL |
| teicoplanin | – | – | 0.5 µg/mL | 0.063 µg/mL | 0.125 µg/mL | 0.5 µg/mL | 0.063 µg/mL | 8 µg/mL | 16 µg/mL | 16 µg/mL |
| vancomycin hexapeptide | inactivity | – | – | – | – | – | – | – | – | – |
